Results reported in ChEMBL document CHEMBL4049436, “Inhibitors of 15-Prostaglandin Dehydrogenase To Potentiate Tissue Repair” (J Med Chem, 2017).

Legend:
[1] = (§1) Half life in mouse liver S9 fractions at 2 uM in presence of NADPH by LC-MS/MS analysis; format: ADME, tissue-based; conditions: liver S9 fraction
[2] = (§2) Cmax in CD1 mouse at 10 mg/kg, ip measured at 10 to 1440 mins post dose by LC-MS/MS analysis; format: ADME, organism-based; parameters: dose 10 mg/kg, route intraperitoneal; conditions: CD1, mouse, in vivo
[3] = (§3) AUC in CD1 mouse at 10 mg/kg, ip measured at 10 to 1440 mins post dose by LC-MS/MS analysis; format: ADME, organism-based; conditions: CD1, mouse, in vivo
Liver = test: as §1; format: ADME, tissue-based; conditions: s9, 2 µM
Mus musculus [4] = test: as §2; format: ADME, organism-based; parameters: dose 10 mg/kg, route intraperitoneal; conditions: mouse, in vivo
Mus musculus [5] = test: as §3; format: ADME, organism-based; conditions: mouse, in vivo
[6] = Plasma concentration in CD1 mouse at 10 mg/kg, ip measured at 3 hrs post dose by LC-MS/MS analysis; format: ADME, organism-based
[7] = Half life in human liver S9 fraction at 2 uM by LC-MS/MS analysis; format: ADME, tissue-based
[8] = Plasma concentration in […] mouse at […], ip measured up to 3 hrs post dose by LC-MS/MS analysis; format: ADME, organism-based

Row | half-life at 2 µM [1] [h] | Cmax [2] [nM] | AUC [3] [ng·h/mL] | t1/2 (Liver) [h] | Cmax (Mus musculus [4]) [nM] | AUC (Mus musculus [5]) [µg·min/mL] | concentration at 3 h [6] [nM] | further results | Compound
1 | 0.217 | 1600 | 717 |  |  |  |  |  | CCCC[S@@+]([O-])c1sc2nc(-c3cccs3)cc(-c3ccccc3)c2c1N
2 |  |  |  | 1.38 | 13000 | 959 | 4200 |  | CCCC[S+]([O-])c1sc2nc(-c3nccs3)cc(-c3ccc(OCCO)cc3)c2c1N (stereo not drawn)
3 | 4.82 |  |  |  |  |  |  | half-life at 2 µM [7]: 3.73 h | CCCC[S@+]([O-])c1sc2nc(-c3nccs3)cc(-c3cnc(C)n3C)c2c1N
4 |  |  |  |  | 10600 | 172 | 60 |  | CCCC[S+]([O-])c1sc2nc(-c3nccs3)nc(-c3ccccc3)c2c1N (racemic)
5 |  |  |  | > 4 | 6200 | 116 | 60 |  | COCC[S+]([O-])c1sc2nc(-c3nccs3)cc(-c3cnc(C)n3C)c2c1N (stereo not drawn)
6 |  |  |  | > 4 |  |  |  |  | COCCC[S+]([O-])c1sc2nc(-c3nccs3)cc(-c3cnc(C)n3C)c2c1N (stereo not drawn)
7 |  |  |  | 0.033 |  |  |  |  | CCCC[S+]([O-])c1sc2nc(-c3nccs3)cc(-c3ccc(COC(=O)CN(C)C)cc3)c2c1N (stereo not drawn)
8 | 1.38 | 1500 | 1380 |  |  |  |  |  | CCCC[S+]([O-])c1sc2nc(-c3cccs3)cc(-c3ccccc3)c2c1N (stereo not drawn)
9 | 0.583 | 3100 | 783 |  |  |  | < 10 | half-life at 2 µM [7]: > 4 h; concentration at 3 h [8]: < 10 nM | CCCC[S@@+]([O-])c1sc2nc(-c3nccs3)cc(-c3cnc(C)n3C)c2c1N
10 |  |  |  | 0.217 |  |  |  |  | CCCC[S+]([O-])c1sc2nc(-c3nccs3)cc(-c3ccc(CO)cc3)c2c1N (stereo not drawn)
